Data set [1] is described as follows: AUC in BALB/c mouse at 10 mg/kg, ip measured upto 24 hrs by LC-MS/MS analysis. Type of data set: ADME, organism-based. Details: time < 24 hrs, dose 10 mg/kg, route ip. The conditions noted are these: in vivo.
The target in data set [2] is T1, von Hippel-Lindau disease tumor suppressor/Son of sevenless homolog 1 (Homo sapiens) (UniProt Q07889+P40337). Nature of the data set: PROTAC activity at VHL/SOS1 in human NCI-H358 cells assessed as induction of SOS1 protein degradation by measuring maximal efficacy at 2 to 2000 nM incubated for 24 hrs by Immunoblot analysis relative to control. The conditions noted are these: dose 2-2000 nM. Type of data set: cell-based. For orientation: Immunoblotting shows a protein as a band on a membrane.

The subject of data set [3] is ASPC1. As to the kind of experiment: Antitumor activity against human ASPC1 cells harboring KRAS G12D mutant xenografted in BALB/c nude mouse assessed as tumor growth inhibition at 10 mg/kg, ip administered once daily for 3 weeks relative to control. In kind it is functional. Particulars: ASPC1, 504 h, read-out: TGI.
In data set [4] the target is von Hippel-Lindau disease tumor suppressor/Son of sevenless homolog 1 (Homo sapiens, UniProt P40337+Q07889, G12R). Nature of the data set: PROTAC activity at VHL/SOS1 in human CAL-62 cells harboring KRAS G12R mutant assessed as induction of SOS1 degradation incubated for 24 hrs by Immunoblot analysis. In kind it is cell-based.
For data set [5], the target named is T2, Son of sevenless homolog 1 (Homo sapiens) (UniProt Q07889).
T2 sequence (whole entry): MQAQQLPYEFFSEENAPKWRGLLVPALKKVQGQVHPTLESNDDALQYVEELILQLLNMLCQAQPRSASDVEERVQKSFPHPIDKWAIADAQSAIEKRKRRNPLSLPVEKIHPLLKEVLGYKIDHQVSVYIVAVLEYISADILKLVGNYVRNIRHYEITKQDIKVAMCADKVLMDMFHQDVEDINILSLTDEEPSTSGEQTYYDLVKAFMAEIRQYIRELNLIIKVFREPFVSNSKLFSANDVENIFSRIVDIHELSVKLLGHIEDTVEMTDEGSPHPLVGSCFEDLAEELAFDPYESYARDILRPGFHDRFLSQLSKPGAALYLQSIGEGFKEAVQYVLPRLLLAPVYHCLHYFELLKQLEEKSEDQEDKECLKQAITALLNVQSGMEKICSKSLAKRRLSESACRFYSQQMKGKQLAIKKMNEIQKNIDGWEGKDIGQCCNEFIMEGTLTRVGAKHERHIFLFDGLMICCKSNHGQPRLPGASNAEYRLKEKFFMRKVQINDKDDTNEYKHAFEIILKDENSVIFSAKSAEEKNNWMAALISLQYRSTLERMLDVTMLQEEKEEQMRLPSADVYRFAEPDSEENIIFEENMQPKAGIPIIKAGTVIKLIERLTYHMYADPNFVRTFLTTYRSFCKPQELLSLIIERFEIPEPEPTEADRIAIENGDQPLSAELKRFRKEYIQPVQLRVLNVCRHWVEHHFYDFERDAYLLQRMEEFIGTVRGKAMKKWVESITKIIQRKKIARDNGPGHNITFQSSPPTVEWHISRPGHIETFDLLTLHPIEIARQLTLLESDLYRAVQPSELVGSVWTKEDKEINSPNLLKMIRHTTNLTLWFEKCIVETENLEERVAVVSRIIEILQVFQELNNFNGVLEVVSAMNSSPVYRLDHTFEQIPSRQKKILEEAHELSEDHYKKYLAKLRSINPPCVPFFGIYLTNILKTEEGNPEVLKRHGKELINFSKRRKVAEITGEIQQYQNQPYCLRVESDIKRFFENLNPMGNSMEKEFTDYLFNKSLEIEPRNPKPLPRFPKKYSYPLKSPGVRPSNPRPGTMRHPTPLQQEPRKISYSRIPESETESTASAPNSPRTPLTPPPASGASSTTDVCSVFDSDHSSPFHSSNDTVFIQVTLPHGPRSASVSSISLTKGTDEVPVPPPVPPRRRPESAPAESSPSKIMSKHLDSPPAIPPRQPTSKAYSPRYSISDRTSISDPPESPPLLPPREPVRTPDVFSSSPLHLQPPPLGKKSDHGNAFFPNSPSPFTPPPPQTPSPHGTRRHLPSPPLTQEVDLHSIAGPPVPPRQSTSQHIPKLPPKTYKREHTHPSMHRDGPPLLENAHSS
Nature of the data set: Induction of SOS1 degradation in human ASPC1 cells at 1 uM incubated for 6 hrs by quantitative proteomics analysis. Type of data set: cell-based.

The subject of data set [6] is ASPC1. As to the kind of experiment: Downregulation of ALKBH4 in human ASPC1 cells at 1 uM incubated for 6 hrs by quantitative proteomics analysis. In kind it is functional, cell-based.
For another data set, the system named is SW-620. Nature of the data set: Antitumor activity against human SW620 cells harboring KRAS G12V mutant xenografted in BALB/c nude mouse assessed as tumor growth inhibition at 10 mg/kg, ip administered once daily for 2 weeks relative to control. In kind it is functional. Particulars: SW-620, 336 h, read-out: TGI. (A xenograft is tissue or cells of one species grown in another, often human tumour cells in immunodeficient mice.)

Data set [7] concerns the target T1, von Hippel-Lindau disease tumor suppressor/Son of sevenless homolog 1 (Homo sapiens). Nature of the data set: In vivo PROTAC activity at VHL/SOS1 in human ASPC1 cells harboring KRAS G12D mutant xenografted BALB/c nude mouse assessed as decrease in phosphorylated ERK expression at 10 to 20 mg/kg, ip administered once daily for 3 weeks by Immunoblot analysis. In kind it is functional, organism-based. Particulars: dose 10-20 mg/kg.

For data set [8], the target named is von Hippel-Lindau disease tumor suppressor/Son of sevenless homolog 1 (Homo sapiens, UniProt P40337+Q07889). As to the kind of experiment: PROTAC activity at VHL/SOS1 in human NCI-H358 cells assessed as induction of SOS1 protein degradation incubated for 24 hrs by Immunoblot analysis. In kind it is cell-based.
Data set [9] concerns the target T1, von Hippel-Lindau disease tumor suppressor/Son of sevenless homolog 1 (Homo sapiens). As to the kind of experiment: PROTAC activity at VHL/SOS1 in human NCI-H358 cells assessed as induction of SOS1 protein degradation at 1.0 uM incubated for 24 hrs by Immunoblot analysis relative to control. In kind it is cell-based.
The target is the same in data set [10]. Nature of the data set: PROTAC activity at VHL/SOS1 in human NCI-H358 cells harboring KRAS G12C mutant assessed as induction of SOS1 degradation at 1 uM incubated for 2 to 4 hrs by Immunoblot analysis. In kind it is cell-based. The conditions noted are these: time 2-4 hrs.
Data set [11] shares this target. As to the kind of experiment: PROTAC activity at VHL/SOS1 in human NCI-H358 cells harboring KRAS G12C mutant assessed as induction of SOS1 degradation at 1 uM preincubated with MG132 for 4 hrs followed by compound treatment and measured after 24 hrs by Immunoblot analysis. Type of data set: cell-based.
The next data set has as its system NCI-H358. Nature of the data set: Antiproliferative activity against human NCI-H358 cells harboring KRAS G12C mutant assessed as inhibition of cell proliferation incubated for 7 days by CellTiterGlo-3D proliferation assay. Type of data set: functional, cell-based. The conditions noted are these: NCI-H358, 168 h.
Data set [12] addresses T1, von Hippel-Lindau disease tumor suppressor/Son of sevenless homolog 1 (Homo sapiens). As to the kind of experiment: PROTAC activity at VHL/SOS1 in human CAL-62 cells harboring KRAS G12R mutant assessed as induction of SOS1 degradation by measuring maximal efficacy at 1 to 2000 nM incubated for 24 hrs by Immunoblot analysis relative to control. In kind it is cell-based. The conditions noted are these: dose 1-2000 nM.

Data set [13] concerns the target T3, Son of sevenless homolog 1 (Homo sapiens, UniProt Q07889).
T3 sequence (Q07889 whole entry): T2 sequence (whole entry)
As to the kind of experiment: Binding affinity to GST-tagged human SOS1 (564 to 1049 residues) expressed in Escherichia coli BL21 (DE3) cells assessed as ternary complex formation by measuring dissociation constant incubated for 15 mins in the presence of 6His tagged human VCB by fluorescence polarization-based displacement assay. On the technique in general: In fluorescence polarisation assays a small probe gives low polarisation when free and higher when bound to something large.

Activity calls are given as the source filed them. The rule behind the calls is not given here.

T1 sequence (P40337 whole entry, looked up, one chain of several): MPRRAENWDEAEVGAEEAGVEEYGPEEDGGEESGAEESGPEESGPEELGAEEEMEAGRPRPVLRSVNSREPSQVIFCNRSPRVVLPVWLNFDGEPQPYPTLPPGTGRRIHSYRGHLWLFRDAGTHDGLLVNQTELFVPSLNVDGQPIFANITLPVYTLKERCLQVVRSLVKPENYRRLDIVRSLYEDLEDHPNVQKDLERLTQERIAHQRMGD
von Hippel-Lindau disease tumor suppressor/Son of sevenless homolog 1 (Homo sapiens, UniProt P40337+Q07889), sequence (P40337 whole entry, one chain of several): as the sequence (P40337 whole entry, looked up, one chain of several) above
von Hippel-Lindau disease tumor suppressor/Son of sevenless homolog 1 (Homo sapiens, UniProt P40337+Q07889, G12R), sequence (P40337 whole entry, looked up, stated change not applied, one chain of several): as the sequence (P40337 whole entry, looked up, one chain of several) above

The term AUC denotes concentration integrated over time. A high value points to high exposure. The term Emax denotes the size of the effect at its maximum, as opposed to the concentration needed. The term EC50 denotes the concentration giving half of the maximal effect. In general, IC50 refers to the concentration that gives 50% inhibition. As usually defined, the Kd is the constant that tells how readily two partners part at equilibrium. For the compound `COc1cc2nc(C)nc(N[C@H](C)c3cc(N)cc(C(F)(F)F)c3)c2cc1C1CCN(C(=O)CCCCCC(=O)N[C@H](C(=O)N2C[C@H](O)C[C@H]2C(=O)N[C@@H](C)c2ccc(-c3scnc3C)cc2)C(C)(C)C)CC1`, the AUC at 24 h in data set [1] stood at 14100 ng·h/mL. For the same compound, the Emax in data set [2] is 100%; in [12], > 95%. In addition, the results for the inhibition in vivo at 10 mg/kg in the data set on ASPC1 [3] and in the data set with SW-620 were 38.8% and 46.5%, respectively. Also, the EC50 in data set [4] was 15 nM; in data set [8] it was 15.7 nM. Moreover, the result (in [5]; in the data set with ASPC1 [6]; in data set [7]; in [10]) was Active. In addition, in [9], the Activity was 98.2%. In addition, the outcome in data set [11] was inactive. Besides, the IC50 in the data set with NCI-H358 stood at 12.9 nM. The Kd in data set [13] was 8.13 nM.

The values are drawn from ChEMBL document CHEMBL5247656, “Discovery of a Potent, Cooperative, and Selective SOS1 PROTAC ZZ151 with In Vivo Antitumor Efficacy in KRAS-Mutant Cancers” (J Med Chem, 2023).
